Assay results published in patent US20150329825A1, “COMPOSITIONS AND METHODS EMPLOYING STEM CELL-DERIVED CARDIOMYOCYTES” (THE REGENTS OF THE UNIVERSITY OF MICHIGAN, priority 2014, published 2015).

Experiments:
Assay type in all cases: cell-based, human
hiPSC-CM monolayers [1] = assay: 96 well optical mapping of intracellular calcium flux in hiPSC-CM monolayers under IKr blockade; settings: 100 nmol L^-1 E4031
Method: Briefly, monolayers were loaded with the intracellular Ca^2+ indicator, rhod-2AM (10 μmol L-1, Life Technologies). After a 30 minute incubation time, the cells were washed in Hanks balanced salt solution (HBSS, Life Technologies) for an additional 30 minutes before optical mapping recordings. […] Movies were filtered in both the time and space domain and conduction velocity (CV) was measured as described previously (Hou L, et al., Circulation Research. 2010;107:1503-1511, herein incorporated by reference in its entirety).
Small glass coverslips to fit into a 96 well format dish are not readily available so here plastic was used as the rigid comparator for PDMS.

hiPSC-CM monolayers [2] = assay: Hypertrophic growth and monolayer formation of hiPSC-CMs on glass or PDMS coverslips with FAK inhibitor
Method: In a second set of experiments hiPSC-CM monolayers were fixed for immunocytochemistry following optical mapping recordings of impulse propagation as recently described (Lee P, et al., Circulation Research. 2012;110:1556-1563, herein incorporated by reference in its entirety). Briefly, cell monolayers were washed with PBS and then fixed with 4% paraformaldehyde for 10 minutes and rinsed twice before blocking with 10% normal donkey serum in PBS plus 0.1% Triton X-100 (Sigma) for 1.5 hours at room temperature. Primary antibodies were used to detect α-actinin (1:500, Sigma) in the cardiac sarcomeres and Cx43 (1:100, Millipore) and N-cadherin (1:200, BD Bioscience) at the intercellular junctions. The primary antibodies were added to 5% donkey serum in PBS plus 0.1% Triton X-100 and incubated overnight at 4° C. Subsequently, cells were washed three times in PBS plus 0.1% TRITON X-100. […] Protein localization was examined by laser scanning confocal microscopy with sequential laser firing for multiple fluorophores (Nikon AIR, Melville, N.Y.). iPSC-CM cross sectional area was calculated in NIS Elements software using N-cadherin staining of the cell membranes.
Integrins are transmembrane heterodimeric receptors essential for providing cell-extracellular matrix adhesion, cellular structural organization and transduction of mechanical signals from the extracellular matrix into biochemical signals in cardiomyocytes (Ross R S, et al., Circulation Research. 2001;88:1112-1119; Israeli-Rosenberg S, et al., The FASEB Journal. 2015;29:374-384; Israeli-Rosenberg S, et al., Circulation Research. 2014;114:572-586). β1 integrins are abundant in the adult heart and participate in the hypertophic response in rodent ventricular myoyctes (Ross et al., Circulation Research. […] Finally, the role of FAK activation in the hypertrophic response of hiPSC-CMs to the soft cell culture environment on PDMS was determined (FIG. 8D and FIG. 14).

hiPSC-CMs (iCell) = assay: Western blotting for mature myofilament proteins (cTnI, β-MyHC) in hiPSC-CMs cultured with FAK inhibitor
[3] = 10 μmol L^-1 FAK inhibitor-14, cultured on PDMS

Row | Compound | CaTD80 post E4031 (hiPSC-CM monolayers [1]; PDMS bottom dishes, n=5, pre 579.8±13.9 ms) [ms] | effect on beat frequency and CaTD80 (in words) (hiPSC-CM monolayers [1]; PDMS bottom well) | reduction of spontaneous beating frequency (hiPSC-CM monolayers [1]; monolayers on matrigel coated PDMS, n=5) [%] | reduction of spontaneous beating frequency (hiPSC-CM monolayers [1]; monolayers on rigid plastic (matrigel coated), n=8) [%] | CaTD80 post E4031 (hiPSC-CM monolayers [1]; plastic bottom dishes, n=8, pre 605.9±24.3 ms) [ms] | effect on spontaneous beating frequency and CaTD80 (in words) (hiPSC-CM monolayers [1]; rigid plastic bottom dishes (matrigel coated)) | monolayer formation and hiPSC-CM expansion in culture (hiPSC-CM monolayers [2]; 100 μmol L^-1, both Glass and PDMS) | hypertrophic growth of hiPSC-CMs (hiPSC-CM monolayers [2]; PDMS coverslips) | effect on hiPSC-CMs grown on glass coverslips (hiPSC-CM monolayers [2]; glass coverslips, effect only at 100 μmol L^-1) | cTnI expression (hiPSC-CMs (iCell); [3]) | β-MyHC expression (hiPSC-CMs (iCell); [3]) | expression of mature myofilament protein isoforms including cTnI and β-MyHC (hiPSC-CMs (iCell); FIG. 8C legend)
1 | Cc1cccc(CCN2CCC(C(=O)c3ccc(NS(C)(=O)=O)cc3)CC2)n1 [E4031] | 780.1 ± 74.1 | more modest effect | ~20 | ~50 | 1873.8 ± 278.9 | very significant impact |  |  |  |  |  | 
2 | Nc1cc(N)c(N)cc1N [FAK inhibitor-14] |  |  |  |  |  |  | prevented monolayer formation and hiPSC-CM expansion in culture | prevented hypertrophic growth | only affected at very high dose | failed to express cTnI | expressed less β-MyHC | prevents expression
